In ChEMBL document CHEMBL1129823, “Cytotoxicity and actin depolymerizing activity of aplyronine A, a potent antitumor macrolide of marine origin, and the natural and artificial analogs” (Bioorg Med Chem Lett, 1997):
In brackets after ≈: the same amount, converted by molar mass. Activity calls are given as the source filed them. The rule behind the calls is not given here.

Key:
[1] = tested on: HeLa; assay: Evaluated for the cytotoxicity against HeLa S3 cells; type: functional, cell-based; conditions: Homo sapiens
[2] = tested on: HeLa; assay: Relative potency was calculated from the cytotoxicity against HeLa S3 cells (aplyronine A = 100); type: functional, Homo sapiens
[3] = F-Actin (40 uM) depolymerizing activity which was monitored by measuring flow birefringence.; type: functional, Oryctolagus cuniculus
[4] = species on record: Oryctolagus cuniculus; assay: Relative potency was calculated from the Actin depolymerizing activity (aplyronine A = 100); type: functional
[5] = Compound was evaluated for the F-Actin (40 uM) depolymerizing activity which was monitored by measuring flow birefringence (Actin was extracted in cold water from the acetone-dried powder of rabbit skeletal muscle); Inactive; type: functional, tissue-based, Oryctolagus cuniculus, Muscle tissue
[6] = species on record: Oryctolagus cuniculus; assay: Relative potency was calculated from the Actin depolymerizing activity (aplyronine A = 100); Inactive; type: functional
[7] = Compound was evaluated for the F-Actin (40 uM) depolymerizing activity which was monitored by measuring flow birefringence (Actin was extracted in cold water from the acetone-dried powder of rabbit skeletal muscle); type: functional, tissue-based, Oryctolagus cuniculus, Muscle tissue
[8] = Compound was evaluated for the F-Actin (40 uM) depolymerizing activity* which was monitored by measuring flow birefringence (Actin was extracted in cold water from the acetone-dried powder of rabbit skeletal muscle); type: functional, tissue-based, Oryctolagus cuniculus, Muscle tissue

IC50 [3] [µM]	IC50 [5]	IC50 [7] [µM]	IC50 [8] [µM]	SMILES	IC50 [1] [µg/mL]	Relative potency [2]	Relative potency [4]	Relative potency [6]
				COCC(C(=O)O[C@@H]1C/C=C/C=C/C(=O)OCC/C=C/[C@H](OC)C[C@H](C)C/C=C(\C)[C@@H](OC)CC[C@@H](C)[C@@H](O)[C@@H]1C)N(C)C (stereo not given in full)	2.1 (≈ 3.38 µM)	0.023		
1800				COCC(C(=O)O[C@@H]1C/C=C/C=C/C(=O)O[C@H]([C@@H](C)[C@@H](O)[C@@H](C)COC(=O)C(C)N(C)C)C/C=C/[C@H](OC)C[C@H](C)C/C=C/[C@@H](OC)CC[C@@H](C)[C@@H](O)[C@@H]1C)N(C)C (stereo not given in full)			1.7	
	Not Active			COCC(C(=O)O[C@@H]1C/C=C/C=C/C(=O)OCC/C=C/[C@H](OC)C[C@H](C)C/C=C/[C@@H](OC)CC[C@@H](C)[C@@H](O)[C@@H]1C)N(C)C (stereo not given in full)				inactive
32				CO[C@H]1CC[C@@H](C)[C@@H](O)[C@H](C)[C@H](O)C/C=C/C=C/C(=O)O[C@H]([C@@H](C)[C@@H](O)[C@@H](C)CC[C@@H](OC(=O)C(C)N(C)C)[C@H](C)[C@H](OC(C)=O)[C@H](C)/C=C/N(C)C=O)C/C=C/[C@H](OC)C[C@H](C)C/C=C/1C (stereo not given in full) [APLYRONINE C]	0.0212 (≈ 0.0224 µM)	2.3	97	
49				CO[C@@H]1/C=C/C[C@@H](C)C[C@@H](OC)/C=C/C[C@@H]([C@@H](C)[C@@H](O)[C@@H](C)CC[C@@H](OC(=O)CN(C)C)[C@H](C)[C@H](OC(C)=O)[C@H](C)CCO)OC(=O)/C=C/C=C/C[C@@H](OC(=O)CN(C)C)[C@@H](C)[C@H](O)[C@H](C)CC1	> 2	<0.02	63	
35				CO[C@H]1CC[C@@H](C)[C@@H](O)[C@H](C)[C@H](O)C/C=C/C=C/C(=O)O[C@H]([C@@H](C)[C@@H](O)[C@@H](C)CC[C@@H](O)[C@H](C)[C@H](OC(C)=O)[C@H](C)/C=C/N(C)C=O)C/C=C/[C@H](OC)C[C@H](C)C/C=C/1C	0.113 (≈ 0.133 µM)	0.42	86	
190				COCC(C(=O)O[C@@H]1C/C=C/C=C/C(=O)O[C@H]([C@@H](C)[C@@H](O)[C@@H](C)CC[C@@H](O)[C@H](C)[C@H](O)[C@H](C)CCO)C/C=C/[C@H](OC)C[C@H](C)C/C=C/[C@@H](OC)CC[C@@H](C)[C@@H](O)[C@@H]1C)N(C)C (stereo not given in full)	0.083 (≈ 0.0941 µM)	0.58	16	
57				COCC(C(=O)O[C@@H]1C/C=C/C=C/C(=O)O[C@H]([C@@H](C)[C@@H](OC(C)=O)[C@@H](C)CC[C@@H](OC(=O)C(C)N(C)C)[C@H](C)[C@H](OC(C)=O)[C@H](C)/C=C/N(C)C=O)C/C=C/[C@H](OC)C[C@H](C)C/C=C(\C)[C@@H](OC)CC[C@@H](C)[C@@H](OC(C)=O)[C@@H]1C)N(C)C (stereo not given in full)	0.216 (≈ 0.186 µM)	0.22	54	
33				COCC(C(=O)O[C@H]1[C@H](C)[C@H](O)C/C=C/C=C/C(=O)O[C@H]([C@@H](C)[C@@H](O)[C@@H](C)CC[C@@H](OC(=O)C(C)N(C)C)[C@H](C)[C@H](OC(C)=O)[C@H](C)/C=C/N(C)C=O)C/C=C/[C@H](OC)C[C@H](C)C/C=C(\C)[C@@H](OC)CC[C@H]1C)N(C)C (stereo not given in full) [APLYRONINE B]	0.00311 (≈ 0.00289 µM)	15	94	
		4500		COCC(C(=O)O[C@@H]1C/C=C/C=C/C(=O)O[C@H]([C@@H](C)[C@@H](O)[C@@H](C)CO)C/C=C/[C@H](OC)C[C@H](C)C/C=C/[C@@H](OC)CC[C@@H](C)[C@@H](O)[C@@H]1C)N(C)C (stereo not given in full)	> 2	<0.02	0.69	
36				COCC(C(=O)O[C@@H]1C/C=C/C=C/C(=O)O[C@H]([C@@H](C)[C@@H](O)[C@@H](C)CC[C@@H](O)[C@H](C)[C@H](OC(C)=O)[C@H](C)CCO)C/C=C/[C@H](OC)C[C@H](C)C/C=C/[C@@H](OC)CC[C@@H](C)[C@@H](O)[C@@H]1C)N(C)C (stereo not given in full)	0.037 (≈ 0.04 µM)	1.3	86	
78				COCC(C(=O)O[C@@H]1C/C=C/C=C/C(=O)O[C@H]([C@@H](C)[C@@H](O)[C@@H](C)CC[C@@H](OC(=O)C(C)N(C)C)[C@H](C)[C@H](OC(C)=O)[C@H](C)CCO)C/C=C/[C@H](OC)C[C@H](C)C/C=C(\C)[C@@H](OC)CC[C@@H](C)[C@@H](O)[C@@H]1C)N(C)C (stereo not given in full)	0.00172 (≈ 0.00166 µM)	28	40	
38				COCC(C(=O)O[C@@H]1C/C=C/C=C/C(=O)O[C@H]([C@@H](C)[C@@H](O)[C@@H](C)CC[C@@H](OC(=O)C(C)N(C)C)[C@H](C)[C@H](OC(C)=O)[C@H](C)CCO)C/C=C/[C@H](OC)C[C@H](C)C/C=C/[C@@H](OC)CC[C@@H](C)[C@@H](O)[C@@H]1C)N(C)C (stereo not given in full)	0.0026 (≈ 0.00254 µM)	18	82	
			7600	C[C@H]([C@H](O)[C@H](C)CCO)[C@H](O)CC[C@H](C)[C@H](O)[C@H](C)[C@@H](O)CCO			0.41	
70				COCC(C(=O)O[C@@H]1CCCCCC(=O)O[C@H]([C@@H](C)[C@@H](O)[C@@H](C)CC[C@@H](OC(=O)C(C)N(C)C)[C@H](C)[C@H](OC(C)=O)[C@H](C)CCO)C/C=C/[C@H](OC)C[C@H](C)C/C=C(\C)[C@@H](OC)CC[C@@H](C)[C@@H](O)[C@@H]1C)N(C)C (stereo not given in full)	0.057 (≈ 0.0547 µM)	0.84	44	
35				COCC(C(=O)O[C@@H]1C/C=C/C=C/C(=O)O[C@H]([C@@H](C)[C@@H](O)[C@@H](C)CC[C@@H](O)[C@H](C)[C@H](OC(C)=O)[C@H](C)/C=C/N(C)C=O)C/C=C/[C@H](OC)C[C@H](C)C/C=C(\C)[C@@H](OC)CC[C@@H](C)[C@@H](O)[C@@H]1C)N(C)C (stereo not given in full)	0.00103 (≈ 0.00105 µM)	47	86	

SMILES	IC50 [3] [µM]	IC50 [5]	IC50 [7] [µM]	IC50 [8] [µM]	IC50 [1] [µg/mL]	Relative potency [2]	Relative potency [4]	Relative potency [6]
COCC(C(=O)O[C@@H]1C/C=C/C=C/C(=O)O[C@H]([C@@H](C)[C@@H](O)[C@@H](C)CC[C@@H](OC(=O)C(C)N(C)C)[C@H](C)[C@H](OC(C)=O)[C@H](C)/C=C/N(C)C=O)C/C=C/[C@H](OC)C[C@H](C)C/C=C(\C)[C@@H](OC)CC[C@@H](C)[C@@H](O)[C@@H]1C)N(C)C (stereo not given in full) [APLYRONINE A]	31				0.00048 (≈ 0.000446 µM)	100	100	
